According to ChEMBL document CHEMBL3091453, “Bioactive compounds from Stuhlmannia moavi from the Madagascar dry forest” (Bioorg Med Chem, 2013):
pIC50: −log10 of the molar value. The source made the active and inactive calls. The rule behind the calls is not given here.

Tests used:
[1] = tested on: A2780; assay: Antiproliferative activity against human A2780 cells after 2 days by Alamar Blue assay; format: functional, cell-based; details: for pIC50: A2780, 48 h
[2] = tested on: Plasmodium falciparum; assay: Antimalarial activity against chloroquine/mefloquine-resistant Plasmodium falciparum Dd2 after 72 hrs by SYBR Green I assay; format: functional; details: Dd2, 72 h

Row | SMILES | pIC50 [1] | pIC50 [2] | Activity [1]
1 | COc1cc(O)cc(/C=C/c2ccc(O)c(O)c2)c1 | 4.27 | 4.57 | –
2 | COC1=CC(=O)c2c(O)c(C(C)=O)c(C)c(O)c2C1=O | 5.09 | 4.62 | –
3 | COc1cc(/C=C/c2cc(O)cc(O)c2)ccc1O | – | – | Active
4 | C[C@@H]1CC[C@H]2[C@@H](C)C(=O)O[C@@H]3O[C@@]4(C)CC[C@@H]1[C@]32OO4 [ARTEMISININ] | – | 8.15 | –
5 | COc1ccc(/C=C2\COc3cc(O)ccc3C2=O)cc1 [BONDUCELLIN] | 4.97 | 4.59 | –
6 | CC(=O)O[C@H]1C(=O)[C@@]2(C)[C@H]([C@H](OC(=O)c3ccccc3)[C@]3(O)C[C@H](OC(=O)[C@H](O)[C@@H](NC(=O)c4ccccc4)c4ccccc4)C(C)=C1C3(C)C)[C@]1(OC(C)=O)CO[C@@H]1C[C@@H]2O [PACLITAXEL] | 7.62 | – | –
7 | Oc1cc(O)cc(/C=C/c2ccc(O)c(O)c2)c1 [PICEATANNOL] | 4.39 | – | –
8 | Oc1ccc(/C=C/c2cc(O)cc(O)c2)cc1 [RESVERATROL] | 4.13 | – | –
